From patent US20180071280A1, “MODULATORS OF CELL DEATH PROCESSES” (URIFER LTD., priority 2015, published 2018)
pEC50: −log10 of the molar value. Where a name gives a salt, the structure may show the parent alone. Read-outs that look alike come from different tables or passages of the source.

What was measured:
[1] = system: SW620 CC cells; assay: MultiTox-Fluor cytotoxicity assay in SW620 CC cells; format: cell-based, human; details: for cell death: 2 μM; for pEC50: Homo sapiens, SW-620, read-out: EC50 (cell death)
Protocol: (§1) Cell lines (HCT116, ht29, Rko, Hep3B, SW48, SW620, MDA-MB-231, PANC-1, su.86.86, Hfb) were obtained from the American Type Culture Collection (ATCC). Cell type authentication was carried out by microscope and DNA profiles using short tandem repeat analysis. Cells were grown in Minimum Essential Medium (MEM) containing 10% heat-inactivated Fetal Bovine Serum (FBS) or in Dulbecco's Modified Eagle's Medium (DMEM) containing 10% FBS, where specified, at 37° C. with 5% CO2. In general, the in-vitro experiments were carried out with 2. μM 0260 added into the growth medium. Dose response experiments included increasing 0260 concentrations. Cell death levels were determined using the MultiTox-Fluor Multiplex Cytotoxicity Assay (G9201, Promega, USA). In brief, 10,000 cells were seeded in black bottom 96 wells plate and were allowed to attach to the plate bottom for 16 h before the administration of various 0260 concentration in each well. Cell death levels were determined according to the manufacturer's protocol.
(§2) Cells death level was determined using the MultiTox-Fluor Multiplex Cytotoxicity Assay (G9201, Promega, USA) according to the manufacturer's protocol.

[2] = system: triple negative breast carcinoma MDA-MB-231 (MDA); assay: MultiTox-Fluor cytotoxicity assay in MDA-MB-231 cells; format: cell-based, human; details: 24-72 h
Protocol: as §1, §2

[3] = system: su.86.86 (pancreatic cancer cells derived from metastatic site-liver); assay: Cytotoxicity dose response in su.86.86 cells; format: cell-based, human; details: 24 h, 48 h, 72 h
Protocol: as §1, §2

[4] = system: Hfb; assay: Mitochondrial membrane potential (TMRE) in normal human cells; format: cell-based
Protocol: For microscopic and ELISA based analyses of cells MMP, Tetra-Methyl-Rhodamine-Ethyl ester (TMRE) incorporation assay was carried out according to the manufacturer's instructions (Abcam, USA).

[5] = system: CC cells; assay: Apoptotic markers in treated CC cells (WB, ICC); format: cell-based, human
Protocol: WB analyses were carried out as previously described before. In brief, cells were lysed in RIPA buffer mixed with protease inhibitors and separated on SDS-PAGE gel, transferred to PVDF membrane treated with 5% skim milk to exclude non-specific background and incubated with a primary antibody over-night. The membrane was incubated for 1 h with a secondary antibody conjugated to Horseradish Peroxidase (HRP). The protein-antibody complex was visualized using the SuperSignal West Pico Chemiluminescent Substrate (Thermo scientific, USA).
Cells were fixed with 4% paraformaldehyde (30 min) and incubated with Permeabilization Solution containing 0.1% Triton X-100 (Sigma-Aldrich, Israel) in PBS at room temperature for 1 h. Nonspecific binding was blocked with PBS containing 10% fetal bovine serum for 1 h at room temperature. Cells were incubated with specific antibodies diluted 1:100 overnight at 4° C. […] Bound primary antibodies were detected by Alexa Fluor® 488 goat anti-mouse IgG antibody or Alexa Fluor® 594 goat anti-rabbit IgG antibody (Molecular Probes, Invitrogen, U.K.). […] Nonspecific staining, as determined by binding to the secondary antibody only, was negligible. The immunostained slides were examined under the fluorescence microscope AxioimagerZ1 (Zeiss, Germany) or confocal fluorescence microscope (Olympus-FV1000).

[6] = system: malignant cells (CC and MDA cells); assay: Cellular ATP level (HPLC) in malignant cells; format: cell-based, human; details: CC cells, high glucose
Protocol: (§3) Quantification of intracellular ATP was carried out using HPLC as previously described.
(§4) Cells were suspended in 400 μl cold 0.4M perchloric acid solution, incubated on ice for 15 min, centrifuged at 12,000×g, neutralized with 4M K2CO3 to pH 7.5, incubated for 15 min on ice and concentrated (10,000×g). Chromatographic analyses were performed using Hitachi Elite LaChrom system at 30° C. applying supernatants to SUPELCOSIL™ LC-18-S HPLC Column (5 μm particle size, L×I.D. 25 cm×2.1 mm), flow rate 0.2 mL/min under isocratic elution conditions (50 mM potassium phosphate, 100 mM triethylamine, pH 6.5 (adjusted with phosphoric acid)):Acetonitrile (98.5:1.5)). Each analysis cycle was set to 30 min, chromatographic flow was monitored at 260 nm and integrated using EZChrom Elite Software.

[7] = system: Hfb; assay: Cellular ATP level (HPLC) in Hfb; format: cell-based, human; details: 12 hours
Protocol: as §3, §4

[8] = Pharmacokinetic study in mice; format: in vivo; details: IP
Protocol: The investigation of PK properties of 0260 was carried out using 30 ICR/CD-1 mice. Intraperitoneal (IP) administration was used, and the solution was administered as 10 ml per 1 kg of animal body weight. At 5, 15, 30, 60, 120, and 240 min after administration (5 mice per each time point) mice were decapitated and blood samples were taken in EDTA-containing tubes. Plasma was prepared from the collected blood by centrifugation and then forwarded for LC-MS/MS analysis. A high sensitivity analytical method was developed for detection of 0260. Analysis was performed in the Agilent 1100 HPLC system including degasser, the binary pump, autosampler, and absorption detector with variable wavelength ranging between 190-600 nm. The HPLC system was coupled with the tandem mass spectrometer API 2000 (Applied Biosystems). The TurboIonSpray ion source was used in the positive ion mode. Data acquisition was performed with Analyst 1.3.1 software.

[9] = target: DAPK1 (Death-associated protein kinase 1) (Homo sapiens, UniProt P53355); assay: Kinase panel assay, DAPK1; format: biochemical; details: above threshold
Protocol: Kinase panel assays were performed using the FRET-based Z′-LYTE, Lantha Screen and Adapta enzymatic kinase assay systems (Life Technologies, Carlsbad, Calif.), which were carried out using the SelectScreen Kinase Profiling Service (Life Technologies). The standard reaction contained 2 μM peptide substrate, ATP at the optimal assay concentration, 50 mM HEPES (pH 7.5), 0.01% Brij-35, 10 mM MgCl2, 1 mM EGTA, and the tested kinase. Each kinase was checked for its activity in duplicate data points (n=2) and was assayed following the detailed procedures outlined in the SelectScreen service. Percent inhibition or ATP displacement (For Lantha screen) represent a ratio of phosphorylated/ATP bound product formed in the presence of the compound compared with phosphorylated/ATP bound product formed in reactions containing 1% DMSO.
Kinome technique was used for monitoring phosphorylation events and phosphorylation targets of 0260-Fer interaction, using peptide arrays for human targets and phosphorylation-specific antibodies. Construction of peptide arrays relied on information from phosphorylation databases. The following proteins were determined as significant above the threshold of 40% kinase activity inhibition or ATP displacement to the Kinase domain site.

DAPK1 (Death-associated protein kinase 1), sequence (P53355 whole entry): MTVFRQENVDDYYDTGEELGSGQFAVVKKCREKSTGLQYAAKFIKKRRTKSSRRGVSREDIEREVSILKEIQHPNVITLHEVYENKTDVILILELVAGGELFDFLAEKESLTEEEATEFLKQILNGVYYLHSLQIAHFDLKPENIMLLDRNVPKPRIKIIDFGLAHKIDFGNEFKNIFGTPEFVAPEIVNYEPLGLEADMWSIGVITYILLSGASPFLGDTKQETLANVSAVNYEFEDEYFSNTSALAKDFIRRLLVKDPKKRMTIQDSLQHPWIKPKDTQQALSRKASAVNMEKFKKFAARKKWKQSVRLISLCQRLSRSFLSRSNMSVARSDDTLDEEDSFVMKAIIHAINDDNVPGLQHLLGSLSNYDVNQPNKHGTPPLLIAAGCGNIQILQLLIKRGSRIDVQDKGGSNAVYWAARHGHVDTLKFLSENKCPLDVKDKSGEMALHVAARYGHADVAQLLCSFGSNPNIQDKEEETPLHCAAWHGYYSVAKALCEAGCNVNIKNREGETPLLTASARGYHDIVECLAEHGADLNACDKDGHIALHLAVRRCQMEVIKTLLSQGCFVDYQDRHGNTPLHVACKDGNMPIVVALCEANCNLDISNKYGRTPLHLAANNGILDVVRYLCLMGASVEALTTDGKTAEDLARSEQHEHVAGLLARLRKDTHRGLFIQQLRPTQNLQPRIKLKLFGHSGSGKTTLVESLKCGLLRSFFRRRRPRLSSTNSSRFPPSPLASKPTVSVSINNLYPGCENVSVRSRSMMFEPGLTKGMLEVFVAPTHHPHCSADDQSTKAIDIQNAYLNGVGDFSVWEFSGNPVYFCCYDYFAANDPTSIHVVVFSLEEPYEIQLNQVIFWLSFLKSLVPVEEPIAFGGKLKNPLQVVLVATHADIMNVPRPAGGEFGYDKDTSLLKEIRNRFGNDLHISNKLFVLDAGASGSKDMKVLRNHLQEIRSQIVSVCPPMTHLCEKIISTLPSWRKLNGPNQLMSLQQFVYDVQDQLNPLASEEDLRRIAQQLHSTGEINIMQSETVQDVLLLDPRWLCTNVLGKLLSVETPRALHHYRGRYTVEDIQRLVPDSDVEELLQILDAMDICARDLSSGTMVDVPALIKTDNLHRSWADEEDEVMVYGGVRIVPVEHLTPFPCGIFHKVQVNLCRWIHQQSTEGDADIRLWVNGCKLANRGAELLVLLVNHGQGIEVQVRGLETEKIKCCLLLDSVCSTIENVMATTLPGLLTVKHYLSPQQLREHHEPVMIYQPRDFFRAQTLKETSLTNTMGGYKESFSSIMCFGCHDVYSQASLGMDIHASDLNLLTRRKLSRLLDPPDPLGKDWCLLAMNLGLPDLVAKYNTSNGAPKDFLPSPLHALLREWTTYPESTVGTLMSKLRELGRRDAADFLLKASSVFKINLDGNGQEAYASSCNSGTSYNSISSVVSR

## CC(C)c1ccc(-c2cn3nc(N4CCC(CN5CCN(C)CC5)CC4)sc3n2)cc1 [compound 0260, tartarate salt of 6-(4-isopropyl-phenyl)-2-{4-[(4-methyl-piperazin-1-yl)methyl]piperidin-1-yl}-imidazo [2,1-b][1,3,4]thiadiazole]
[1]; 24 h, metastatic CC (SW620), 1 gr/l glucose
  cell death: 100%
[1]; 72 h, high glucose concentration
  cell death: 100%
[1]; SW620, 4.5 gr/1 glucose (DMEM)
  pEC50: 5.29
  death at the highest dose: 50%
[1]; SW620, 24 h, micellar formulation, 1 gr/l glucose (MEM)
  pEC50: 6.40
[1]; SW620, 48 h, micellar formulation
  pEC50: 6.52
[2]
  concentration efficient in inducing cell death: ≤ 1.5 µM
[3]
  sensitivity of Su.86.86 relative to PANC-1 cells: more sensitive
[4]
  Mitochondrial Membrane Potential (MMP) depolarization: absent
[5]
  apoptotic markers (cleaved caspase 3, cleaved PARP-1, AIF translocation): not observed
[6]
  effect on ATP levels under high glucose medium: reducing its effect on ATP levels
[7]
  effect on cellular ATP level: not seen
[8]; ICR/CD-1, mouse, plasma, read-out: T1/2 in the blood
  half-life: 2.92 h
[8]
  volume of distribution: 4.244 L/kg
[9]
  kinase activity inhibition or ATP displacement: > 40%
